Structures are written as SMILES. Where only a bound is given, the exact number is not on record here.

For the first assay, the target named is T1, active p38 alpha enzyme (Upstate Biotechnology) (Homo sapiens, UniProt Q16539).
T1 construct: purchased Upstate Biotechnology
T1 sequence (Q16539 whole entry): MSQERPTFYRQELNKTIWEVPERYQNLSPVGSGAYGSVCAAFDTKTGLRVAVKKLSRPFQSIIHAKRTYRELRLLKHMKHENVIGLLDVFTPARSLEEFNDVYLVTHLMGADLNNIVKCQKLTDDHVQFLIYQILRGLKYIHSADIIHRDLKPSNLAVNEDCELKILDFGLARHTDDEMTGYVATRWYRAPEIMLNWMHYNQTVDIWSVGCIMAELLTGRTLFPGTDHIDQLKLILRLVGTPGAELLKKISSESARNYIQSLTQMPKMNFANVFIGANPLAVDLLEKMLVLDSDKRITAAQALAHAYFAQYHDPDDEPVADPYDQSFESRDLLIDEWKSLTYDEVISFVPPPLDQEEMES
Briefly: p38α biochemical assay (ATP turnover, luminescent detection, Cambrex PKlight). The following applies: p38α biochemical assay, Table 1 Biological Activity. A digest of the protocol:
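Active human p38α was incubated with full-length MapkapK2 protein as substrate and 1.4 uM ATP (final) for 2 hours at 30C. Buffer: 200 mM Tris, 100 mM MgCl2, 1.5 mM EGTA, 4 mM CaCl2, 20 mM MOPS, 1 mM EDTA, 1% glycerol, 0.1% β-mercaptoethanol, 1 mg/ml BSA. Total ATP turnover read by luminescence.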
The compound `CC(C)NC(=O)c1csc(-c2c(-c3ccc(F)cc3)nc3ncccn23)n1` [Example 97, 2-|2-(4-Fluoro-phenyl)-imidazo|1,2-a|pyrimidin-3-yl|-thiazole-4-carboxylic acid isopropylamide] showed a 50% inhibitory concentration (IC50) greater than 1 µM. Still for that read-out and setting: to `CC(=O)Nc1cccc(C(=O)NCc2onc(-c3ccc(F)cc3)c2-c2nc(C(=O)NC(C)C)cs2)c1` [Example 686] belongs greater than 1 µM; to `CC(C)NC(=O)c1csc(-c2oc(CN3CCN(C(=O)Cc4cccc(O)c4)CC3)nc2-c2ccc(F)cc2)n1` [Example 381], no more than 1 µM. As to `CC(C)NC(=O)c1csc(-c2oc(CN3CCN(C(=O)c4ccc(Cl)c([N+](=O)[O-])c4)CC3)nc2-c2ccc(F)cc2)n1` [Example 511], the half-maximal inhibitory concentration (IC50) was greater than 1 µM. The same measure, in the same setting: the result for `COc1ccc(CNC(=O)c2csc(-c3sc(C)nc3-c3ccc(F)cc3)n2)cc1OC` [Example 60, 4′-(4-Fluoro-phenyl)-2′-methyl-|2,5′|bithiazolyl-4-carboxylic acid 3,4-dimethoxy-benzylamide] reads greater than 1 µM. Take `CC(C)NC(=O)c1csc(-c2oc(CN3CCN(C(=O)c4cccnc4)CC3)nc2-c2ccc(F)cc2)n1` [Example 349]: the IC50 was greater than 1 µM. Still for that read-out and setting: the result for `CC(C)NC(=O)c1csc(-c2oc(CNC(=O)c3ccncc3Cl)nc2-c2ccc(F)cc2)n1` [Example 156] reads no more than 1 µM.

The compound `CC(C)NC(=O)c1csc(-c2oc(CN3CCN(C(=O)c4cccc5ccccc45)CC3)nc2-c2ccc(F)cc2)n1` [Example 431] had an IC50 of no more than 1 µM. On the same count and under the same terms, the result for `COc1cc(/C=C/C(=O)N2CCN(Cc3nc(-c4ccc(F)cc4)c(-c4nc(C(=O)NC(C)C)cs4)o3)CC2)ccc1O` [Example 498] reads no more than 1 µM; that for `COc1cccc(O)c1C(=O)N1CCN(Cc2nc(-c3ccc(F)cc3)c(-c3nc(C(=O)NC(C)C)cs3)o2)CC1` [Example 423], no more than 1 µM. Still for that read-out and setting: the result for `COc1ccc(C(=O)N2CCN(Cc3nc(-c4ccc(F)cc4)c(-c4nc(C(=O)NC(C)C)cs4)o3)CC2)cc1O` [Example 426] reads no more than 1 µM. The same measure, in the same setting: to `CCOc1ccccc1C(=O)N1CCN(Cc2nc(-c3ccc(F)cc3)c(-c3nc(C(=O)NC(C)C)cs3)o2)CC1` [Example 416] belongs greater than 1 µM; to `COc1ccc(C(=O)NCc2onc(-c3ccc(F)cc3)c2-c2nc(C(=O)NC(C)C)cs2)cc1` [Example 616], greater than 1 µM.

`CC(C)NC(=O)c1csc(-c2oc(CNC(=O)/C=C/c3ccccc3O)nc2-c2ccc(F)cc2)n1` [Example 166] displayed a half-inhibitory concentration (IC50) of no more than 1 µM. Still for that read-out and setting: the result for `CC(C)NC(=O)c1csc(-c2oc(CN3CCN(C(=O)C(NC(=O)OC(C)(C)C)C(C)C)CC3)nc2-c2ccc(F)cc2)n1` (stereo not drawn) [Example 535] reads greater than 1 µM. `COc1cc(OC)cc(C(=O)NCc2onc(-c3ccc(F)cc3)c2-c2nc(C(=O)NC(C)C)cs2)c1` [Example 702] gave a half-maximal inhibitory concentration (IC50) greater than 1 µM. The same measure, in the same setting: the result for `COc1ccc(C(=O)N2CCN(Cc3nc(-c4ccc(F)cc4)c(-c4nc(C(=O)NC(C)C)cs4)o3)CC2)c(OC)c1` [Example 462] reads no more than 1 µM; that for `Cc1onc(-c2ccc(Cl)cc2)c1-c1ccn(C(=O)NC2CCCCC2)n1` [Example 8, 3-|3-(4-Chloro-phenyl)-5-methyl-isoxazol-4-yl|-pyrazole-1-carboxylic acid cyclohexylamide], no more than 1 µM; that for `CC(C)NC(=O)c1csc(-c2oc(CNC(=O)C(C)c3cccc(C(=O)c4ccccc4)c3)nc2-c2ccc(F)cc2)n1` (stereo not drawn) [Example 330], greater than 1 µM.

With `COCCNC(=O)c1csc(-c2sc(C)nc2-c2ccc(F)cc2)n1` [Example 53, 4′-(4-Fluoro-phenyl)-2′-methyl-|2,5′|bithiazolyl-4-carboxylic acid (2-methoxy-ethyl)-amide], the IC50 is no more than 1 µM. Still for that read-out and setting: to `CCC(C)C(NC(=O)OC(C)(C)C)C(=O)NCc1nc(-c2ccc(F)cc2)c(-c2nc(C(=O)NC(C)C)cs2)o1` (stereo not drawn) [Example 328] belongs greater than 1 µM. On the same count and under the same terms, the result for `Cc1ccc(F)cc1C(=O)NCc1onc(-c2ccc(F)cc2)c1-c1nc(C(=O)NC(C)C)cs1` [Example 625] reads greater than 1 µM. In turn, `CC(C)NC(=O)c1csc(-c2oc(CNC(=O)C3CCCO3)nc2-c2ccc(F)cc2)n1` (stereo not drawn) [Example 109] displayed a half-maximal inhibitory concentration (IC50) of no more than 1 µM. Still for that read-out and setting: to `CC(C)CC(=O)NCc1onc(-c2ccc(F)cc2)c1-c1nc(C(=O)NC(C)C)cs1` [Example 579] belongs greater than 1 µM.

Still in this assay, the particulars now being: p38α kinase; Table 1 Biological Activity.
For the compound `COc1ccc(N2CCN(Cc3nc(-c4ccc(F)cc4)c(-c4nc(C(=O)NC(C)C)cs4)o3)CC2)cc1OC` [Example 1302], the half-inhibitory concentration (IC50) was greater than 1 µM.

For the compound `CCC(C)NCc1onc(-c2ccc(F)cc2)c1-c1nc(C(=O)NC(C)C)cs1` (stereo not drawn) [Example 1393], the half-inhibitory concentration (IC50) is greater than 1 µM.

Consider `CC(C)NC(=O)c1csc(-c2c(-c3ccc(F)cc3)noc2CNC(=O)C2CCCN2C(=O)OCc2ccccc2)n1` (stereo not drawn) [Example 802], for which the IC50 was greater than 1 µM. Still for that read-out and setting: the result for `COCCNC(=O)c1csc(-c2c(-c3ccc(F)cc3)n[nH]c2C2CCNCC2)n1` [Example 2043] reads no more than 1 µM. Same read-out and setting: the result for `Cc1cccc(CNCc2onc(-c3ccc(F)cc3)c2-c2nc(C(=O)NC(C)C)cs2)c1` [Example 1427] reads greater than 1 µM; that for `O=C(NCc1cc(F)cc(F)c1)c1csc(-c2c(-c3ccc(F)cc3)n[nH]c2C2CCNCC2)n1` [Example 2113], greater than 1 µM. In turn, `CC(C)NC(=O)c1csc(-c2oc(CNc3ccc(F)cc3C(F)(F)F)nc2-c2ccc(F)cc2)n1` [Example 1363] came in with an IC50 greater than 1 µM. The same measure, in the same setting: to `CC(C)NC(=O)c1csc(-c2oc(CN3CCC(NC(=O)OC(C)(C)C)C3)nc2-c2ccc(F)cc2)n1` (stereo not drawn) [Example 1259] belongs greater than 1 µM; to `CC(C)NC(=O)c1csc(-c2c(-c3ccc(F)cc3)noc2CNc2ccccc2C(C)(C)C)n1` [Example 1672], greater than 1 µM. Still for that read-out and setting: the result for `C#CCNC(=O)c1csc(-c2sc(C)nc2-c2ccc(F)cc2)n1` [Example 1707] reads no more than 1 µM; that for `COc1cccc(N2CCN(Cc3nc(-c4ccc(F)cc4)c(-c4nc(C(=O)NC(C)C)cs4)o3)CC2)c1` [Example 1271], greater than 1 µM; that for `CC(C)NC(=O)c1csc(-c2c(-c3ccc(F)cc3)n[nH]c2C2CCN(C(=O)C3CCCO3)CC2)n1` (stereo not drawn) [Example 823], no more than 1 µM.

`Cc1ccc(CNCc2onc(-c3ccc(F)cc3)c2-c2nc(C(=O)NC(C)C)cs2)cc1C` [Example 1451] yielded a half-inhibitory concentration (IC50) greater than 1 µM. Still for that read-out and setting: the result for `Cc1nc(-c2ccc(F)cc2)c(-c2nc(C(=O)N3CCN(C4CCCCC4)CC3)cs2)s1` [Example 1898] reads greater than 1 µM; that for `CC(C)NC(=O)c1csc(-c2oc(CNC(C)C(C)C)nc2-c2ccc(F)cc2)n1` (stereo not drawn) [Example 1069], no more than 1 µM.

`CC(C)NC(=O)c1csc(-c2c(-c3ccc(F)cc3)n[nH]c2C2CCN(C(=O)c3csc4ccccc34)CC2)n1` [Example 920]: the IC50 is greater than 1 µM. On the same count and under the same terms, the result for `CC(C)NC(=O)c1csc(-c2c(-c3ccc(F)cc3)n[nH]c2C2CCN(C(=O)c3ccc([N+](=O)[O-])cc3Cl)CC2)n1` [Example 986] reads greater than 1 µM. The same measure, in the same setting: to `COc1ccccc1CCNCc1onc(-c2ccc(F)cc2)c1-c1nc(C(=O)NC(C)C)cs1` [Example 1476] belongs greater than 1 µM; to `CC(C)NC(=O)c1csc(-c2c(-c3ccc(F)cc3)n[nH]c2C2CCN(C(=O)c3cc(F)ccc3[N+](=O)[O-])CC2)n1` [Example 950], greater than 1 µM; to `CC(C)NC(=O)c1csc(-c2c(-c3ccc(F)cc3)noc2CN2C(C)CCCC2C)n1` (stereo not drawn) [Example 1533], greater than 1 µM. For the compound `CC(C)NC(=O)c1csc(-c2c(-c3ccc(F)cc3)n[nH]c2C2CCN(C(=O)/C=C/c3ccccc3C(F)(F)F)CC2)n1` [Example 1010], the half-maximal inhibitory concentration (IC50) is greater than 1 µM. Still for that read-out and setting: to `CC(C)NC(=O)c1csc(-c2oc(CN(C)C(Cc3ccccc3)c3ccccc3)nc2-c2ccc(F)cc2)n1` (stereo not drawn) [Example 1288] belongs greater than 1 µM. The same measure, in the same setting: the result for `CC(C)NC(=O)c1csc(-c2c(-c3ccc(F)cc3)noc2CNC(=O)C2Cc3ccccc3CN2C(=O)OC(C)(C)C)n1` (stereo not drawn) [Example 808] reads greater than 1 µM. Still for that read-out and setting: to `CC(C)NC(=O)c1csc(-c2c(-c3ccc(F)cc3)n[nH]c2C2CCN(C(=O)c3ccc([N+](=O)[O-])c(O)c3)CC2)n1` [Example 946] belongs greater than 1 µM; to `Cc1nc(-c2ccc(F)cc2)c(-c2nc(C(=O)N3CCN(CCc4ccccc4)CC3)cs2)s1` [Example 1916], greater than 1 µM; to `CC(C)NC(=O)c1csc(-c2oc(CNCc3ccc(C(C)(C)C)cc3)nc2-c2ccc(F)cc2)n1` [Example 1158], greater than 1 µM. With `COC(=O)C1CCN(C(=O)c2csc(-c3sc(C)nc3-c3ccc(F)cc3)n2)CC1` [Example 1882], the IC50 was greater than 1 µM. `CC(C)NC(=O)c1csc(-c2oc(CNC3CC3)nc2-c2ccc(F)cc2)n1` [Example 1053] yielded an IC50 greater than 1 µM. Consider `CC(C)NC(=O)c1csc(-c2c(-c3ccc(F)cc3)noc2CNCC(C)c2ccccc2)n1` (stereo not drawn) [Example 1449], for which the IC50 was greater than 1 µM. Turning to `CC(CNC(=O)c1csc(-c2c(-c3ccc(F)cc3)n[nH]c2C2CCNCC2)n1)c1ccccc1` (stereo not drawn) [Example 2094], the concentration for half-maximal inhibition (IC50) is greater than 1 µM.

In turn, `Cc1nc(-c2ccc(F)cc2)c(-c2nc(C(=O)N3CCSC3)cs2)s1` [Example 1846] gave an IC50 greater than 1 µM. With `Cc1nc(-c2ccc(F)cc2)c(-c2nc(C(=O)NCc3ccc(C)c(C)c3)cs2)s1` [Example 1775], the 50% inhibitory concentration (IC50) was no more than 1 µM. Still for that read-out and setting: the result for `Cc1ccc(N2CCN(Cc3nc(-c4ccc(F)cc4)c(-c4nc(C(=O)NC(C)C)cs4)o3)CC2)c(C)c1` [Example 1267] reads greater than 1 µM; that for `CC(C)NC(=O)c1csc(-c2oc(CNc3ccc(F)cc3)nc2-c2ccc(F)cc2)n1` [Example 1316], greater than 1 µM. The compound `COc1ccc(CNCc2nc(-c3ccc(F)cc3)c(-c3nc(C(=O)NC(C)C)cs3)o2)cc1` [Example 1125] registered a 50% inhibitory concentration (IC50) greater than 1 µM.

Compound `CC(C)NC(=O)c1csc(-c2c(-c3ccc(F)cc3)n[nH]c2C2CCN(C(=O)c3ccc(F)cc3)CC2)n1` [Example 840] gave an IC50 greater than 1 µM.

(Values after patent US20060252807A1, “Novel ortho-terphenyl inhibitors of p38 kinase and methods of treating inflammatory disorders” (Kalypsys, Inc., priority 2005, published 2006).)
